# Laboratory results published in patent publication US20070032505A1, “Crystalline form of gatifloxacin” (priority 2003, published 2007).
# Several values for one entry are separate records, joined by “and”; a condition that tells them apart may be missing. Identical values can stand only once.
# Tests used:
# [1] = stability test: water content (Karl-Fischer) and powder X-ray diffractogram in contact with the atmosphere at room temperature; format: physicochemical
# Source text: The new crystalline form of gatifloxacin which is obtainable by this process has an initial water content ranging between 0.8 and 1.6% and stabilises with a water content ranging between 2.5 and 4.5% by weight, when it is in contact with the atmosphere at room temperature and with a relative humidity comprised between 20 and 70%, and it remains stable for at least 2 months in such conditions.
# The crystalline form of gatifloxacin object of the present invention is characterized by its powder X-ray diffractogram (FIG. 1), ^13C nuclear magnetic resonance spectrum (FIG. 3) and analysis of water content by the Karl-Fischer method.
# For recording the powder X-ray diffractograms a PHILIPS X'Pert automatic diffractometer equipped with a Cu tube and a graphite secondary monochromator of the following technical specifications was used: • Cu wavelength Kα: 1.5419 Å; • receiving slit: 0.1 mm; • Soller: 0.04 radians; • dispersion slit and divergence slit: 1°
# The tube worked at 40 kV and 50 mA. Sweeping was carried out continuously in the 2θ interval between 5 and 40° with pass of 0.03° and 1-second pass time.
# [2] = disintegration and dissolution rate properties; format: physicochemical; details: form containing between 2.5 and 4.5% of water by weight
smiles,measurement,setting,value
"COc1c(N2CCNC(C)C2)c(F)cc2c(=O)c(C(=O)O)cn(C3CC3)c12 (centres unmarked) [form I gatifloxacin, 1-cyclopropyl-6-fluoro-1,4-dihydro-ε-methoxy-7-(3-methyl-1-piperazinyl)-4-oxo-3-quinolinecarboxylic acid]",% water by weight,"[1]; 3 hours, room temperature, in contact with the atmosphere",2.2 % by weight
same,% water by weight,"[1]; 6 hours, room temperature, in contact with the atmosphere",2.3 % by weight
same,% water by weight,"[1]; 3 days, room temperature, in contact with the atmosphere",3.22 % by weight and 3.2 % by weight
same,% water by weight,"[1]; 13 days, room temperature, in contact with the atmosphere",2.9 % by weight
same,% water by weight,"[1]; 17 days, room temperature, in contact with the atmosphere",3.0 % by weight
same,% water by weight,"[1]; 68 days, room temperature, in contact with the atmosphere",3.3 % by weight
same,period of time to stabilise,[1]; longer if relative humidity lower than 20%,three
same,powder X-ray diffractogram over the stability test period,"[1]; room temperature, in contact with the atmosphere, up to 68 days",remains substantially unchanged
same,time the water content remains stable,"[1]; room temperature, relative humidity between 20 and 70%",at least 2 months
same,% water by weight,[1]; time 0 (at the time of taking it out of the desiccator),1.5 % by weight
same,properties of disintegration and dissolution rate,[2],excellent
